Results as given in patent US11414429B2, “Compound or pharmaceutically acceptable salt thereof” (RIKEN, priority 2016, dated 2022).

Assays:
tankyrase 1 (TNKS 1) = target: T1, tankyrase 1 (TNKS 1) (Homo sapiens, UniProt O95271); experiment: Tankyrase inhibitory activity test (ELISA, self-polyADP ribosylation), tankyrase 1; assay type: biochemical; conditions: tankyrase 1, ELISA, self-polyADP ribosylation; read-out: TNKS1 inhibitory activity (IC50 class)
T1 construct: 1,024-1,327aa; made in house; host or cells: cell-free protein synthesis system
T1 sequence (O95271 1024-1327): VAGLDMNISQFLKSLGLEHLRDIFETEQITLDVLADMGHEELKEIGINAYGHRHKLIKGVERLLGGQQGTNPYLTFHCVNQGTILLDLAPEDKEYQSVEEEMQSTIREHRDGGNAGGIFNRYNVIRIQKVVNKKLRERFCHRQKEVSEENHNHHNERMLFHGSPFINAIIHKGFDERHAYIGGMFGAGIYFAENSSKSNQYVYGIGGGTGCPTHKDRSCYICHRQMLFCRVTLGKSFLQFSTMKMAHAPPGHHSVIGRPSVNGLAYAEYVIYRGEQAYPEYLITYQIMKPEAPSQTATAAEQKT
Description: (§1) (Test Example 1) Tankyrase Inhibitory Activity Test
(§2) For each of the compounds obtained in Examples (the test target compounds), the tankyrase inhibitory activity (an inhibitory activity against tankyrase 1 (TNKS 1) and an inhibitory activity against tankyrase 2 (TNKS 2)) was evaluated by measuring the enzymatic activity of tankyrase 1 and the enzymatic activity of tankyrase 2 by the ELISA technique using self-polyADP ribosylation as an index. First, Flag-tag fusion tankyrase 1 (1,024-1,327aa, SAM+PARP) and tankyrase 2 (613-1, 116aa, ANK5+SAM+PARP) were each synthesized by a cell-free protein synthesis system and diluted with a Tris buffer (50 mM Tris-HCl (pH 8.0), 150 mM NaCl, 10% glycerol). Then, 50 μL of the diluted tankyrase 1 or tankyrase 2 was added to a plate on which the anti-FLAGM 2 monoclonal antibody was immobilized (Anti-FLAG high sensitivity M2 coated plate) (SIGMA Corporation), and was allowed to stand at 4° C. overnight. Thereafter, the plate was washed four times with a PBS buffer containing 0.1% Triton X-100 (PBST buffer).
(§3) Subsequently, the test target compound diluted with an assay buffer (50 mM Tris-HCl (pH 8.0), 4 mM MgCl2, 0.2 mM DTT) (using DMSO as a control) was added to each well of the plate and was allowed to stand at room temperature for 10 minutes. Thereafter, a biotin-labeled NAD solution (225 μM NAD, 25 μM 6-Biotin-17-NAD (Trevigen Inc.)) was added as a donor substrate and mixed with the resultant test target compound, and the reaction was allowed to proceed at 30° C. for 45 minutes. Instead of the biotin-labeled NAD solution, distilled water was added to blank wells. After the reaction, the plate was washed four times with the PBST buffer. Thereafter, HRP (horseradish peroxidase)-labeled streptavidin (Trevigen Inc.) diluted 1,000-fold with the PBS buffer was added to each well, and the reaction was allowed to proceed at room temperature for 20 minutes. After the plate was washed four times with the PBST buffer, a chemiluminescent substrate solution TACS-Sapphire (Trevigen Inc.) was added to each well and the reaction was allowed to proceed at room temperature for 20 minutes. Then, the chemiluminescence intensity was measured using a chemiluminescence measuring apparatus.
(§4) The residual enzyme activity in the presence of the test target compound was determined in accordance with the following formula. Based on the residual enzyme activity at multiple concentrations of the test target compound, an enzyme inhibition activity was calculated as a 50% inhibitory concentration (IC50 value) using data analysis software named Origin (LightStone Corp.).

tankyrase 2 (TNKS 2) = target: T2, tankyrase 2 (TNKS 2) (Homo sapiens, UniProt Q9H2K2); experiment: Tankyrase inhibitory activity test (ELISA, self-polyADP ribosylation), tankyrase 2; assay type: biochemical; conditions: tankyrase 2, ELISA, self-polyADP ribosylation; read-out: TNKS2 inhibitory activity (IC50 class)
T2 construct: 613-1, 116aa; made in house; host or cells: cell-free protein synthesis system
T2 sequence (Q9H2K2 613-1166): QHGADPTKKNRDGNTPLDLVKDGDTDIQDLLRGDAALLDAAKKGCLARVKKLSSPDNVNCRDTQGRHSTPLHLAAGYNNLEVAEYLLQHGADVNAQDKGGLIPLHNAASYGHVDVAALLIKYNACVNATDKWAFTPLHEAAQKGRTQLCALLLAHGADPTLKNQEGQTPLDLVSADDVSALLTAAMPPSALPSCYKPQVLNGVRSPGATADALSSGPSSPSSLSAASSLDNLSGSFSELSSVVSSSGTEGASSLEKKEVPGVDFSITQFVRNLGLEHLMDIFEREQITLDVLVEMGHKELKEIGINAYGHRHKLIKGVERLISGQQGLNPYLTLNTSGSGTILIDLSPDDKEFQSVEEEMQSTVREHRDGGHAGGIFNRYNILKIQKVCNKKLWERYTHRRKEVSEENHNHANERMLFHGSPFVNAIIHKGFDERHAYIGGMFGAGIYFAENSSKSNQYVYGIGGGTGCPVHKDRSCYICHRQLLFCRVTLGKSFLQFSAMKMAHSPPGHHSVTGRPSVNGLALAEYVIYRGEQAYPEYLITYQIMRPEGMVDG
Description: as §1, §2, §3, §4

[1] = system: human colorectal cancer cell line, COLO-320DM; experiment: Cell proliferation inhibitory activity test (Celltiter-Glo Luminescent Cell Viability Assay); assay type: cell-based; conditions: COLO-320DM cells, 96 hours, read-out: COLO-320 DM cell proliferation inhibitory activity (GI50 class)
Description: (Test Example 2) Cell Proliferation Inhibitory Activity Test
The cell proliferation inhibitory activity of the compound obtained in each of Examples against human colorectal cancer cell line, COLO-320DM was evaluated by Celltiter-Glo Luminescent Cell Viability Assay (Promega Corporation, G7573). The COLO-320 DM cells were cultured in a RPMI-1640 medium (Wako Pure Chemical Industries, Ltd., 189-02025) containing 10% fetal bovine serum and 2 mM of glutamine. The cultured cells were washed with PBS and then detached with trypsin/EDTA to prepare a cell solution containing 3×10^4 cells/mL.
Next, the cell solution was seeded in a 96 well microplate (Thermo/Nunc, 136101) in an amount of 70 μL/well and was cultured overnight under conditions at 37° C. with 5% CO2. On the next day, 10 μL/well of a solution in which the test target compound (DMSO solution) was diluted with the cell culture medium (a final DMSO concentration of 1%) was added and the reaction was allowed to proceed under conditions at 37° C. with 5% CO2 for 96 hours (a 1% DMSO solution was used as a control). Subsequently, 80 μL/well of Celltiter-Glo Luminescent Cell Viability Assay reagent (Promega Corporation, G7573) was added, followed by agitation for 2 minutes with a shaker under shielding with aluminum foil. Thereafter, the resultant solution was allowed to stand for reaction at room temperature for 10 minutes.
After that, the luminescent signal was measured with a luminometer (Biotech, Synergy). The cell proliferation inhibitory activity was evaluated by obtaining a percentage of a cell proliferation volume of each compound-added group with respect to a cell proliferation volume (100%) of a control group in which no test target component solution was added, and calculating a value of compound concentration (GI50) required to reduce the remaining cell volume to 50% of the remaining cell volume of the control. […] The results are shown in Tables 120 to 123 together with the results of the tankyrase inhibition activity test.

Compound	IC50 (tankyrase 1 (TNKS 1)) [nM]	IC50 (tankyrase 2 (TNKS 2)) [nM]	GI50 [1] [nM]
O=c1[nH]c(N2CCC3(CC2)CN(Cc2ccccn2)c2cc(F)cc(F)c23)nc2c1CCCC2 [Example 253, 2-[4,6-difluoro-1-(pyridin-2-yl)methyl-spiro [indoline-3,4′-piperidin]-1′-yl]-5,6,7,8-tetrahydro-quinazolin-4(3H)-one]	< 20	< 20	100 to 600
O=c1[nH]c(N2CCC3(CC2)CN(Cc2ccncc2)c2cc(F)cc(F)c23)nc2c1CCCC2 [Example 254, 2-[4,6-difluoro-1-(pyridin-4-yl)methyl-spiro[indoline-3,4′-piperidin]-1′-yl]-5,6,7,8-tetrahydro-quinazolin-4(3H)-one]	< 20	< 20	100 to 600
Cc1cccc2c(=O)[nH]c(N3CCC4(CC3)CN(CCO)c3cc(F)cc(F)c34)nc12 [Example 258, 2-[4,6-di-fluoro-1-(2-hydroxy-ethyl)spiro-[indoline-3,4′-piperidin]-1′-yl]-8-methyl-quinazolin-4(3H)-one]	< 20	< 20	600 to 1000
O=c1[nH]c(N2CCC3(CC2)CN(CCO)c2cc(F)cc(F)c23)nc2c(CO)cccc12 [Example 259, 2-[4,6-di-fluoro-1-(2-hydroxy-ethyl)spiro-[indoline-3,4′-piperidin]-1′-yl]-8-(hydroxy-methyl)-quinazolin-4(3H)-one]	< 20	< 20	600 to 1000
O=C1N(Cc2cccnc2)c2cc(F)cc(F)c2C12CCN(c1nc3c(CO)cccc3c(=O)[nH]1)CC2 [Example 273, 4,6-difluoro-1′-[8-(hydroxymethyl)-4-oxo-3,4-dihydro-quinazolin-2-yl]-1-(pyridin-3-ylmethyl)-spiro[indoline-3,4′-piperidin]-2-one]	< 20	< 20	600 to 1000
CN1CCCc2c1nc(N1CCC3(CC1)C(=O)N(C)c1ccccc13)[nH]c2=O [Example 292, 1-methyl-1′-(8-methyl-4-oxo-3,4,5,6,7,8-hexa-hydropyrido-[2,3-d]-pyrimidin-2-yl)-spiro[indoline-3,4′-piperidine]-2-one]	< 20	< 20	100 to 600
O=c1[nH]c(N2CCC3(CC2)CN(Cc2ncccn2)c2cc(F)cc(F)c23)nc2c1CCCC2 [Example 316, 2-[4,6-difluoro-1-(pyrimidin-2-yl-methyl)spiro-[indoline-3,4′-piperidine]-1′-yl]-5,6,7,8-tetrahydro-quinazoline-4(3H)-one]	< 20	< 20	100 to 600
CN1C(=O)C2(CCN(c3nc4c(c(=O)[nH]3)CCCC4)CC2)c2c(Cl)cc(-c3nc(C(=O)N4CCOCC4)co3)cc21 [Example 323, 4-chloro-1-methyl-6-[4-(morpholine-4-carbonyl)oxazole-2-yl]-1′-(4-oxo-3,4,5,6,7,8-hexa-hydroquinazoline-2-yl)spiro[indoline-3,4′-piperidin]-2-one]	< 20	< 20	600 to 1000
CN1CCCc2c1nc(N1CCC3(CC1)C(=O)N(C)c1cc(-c4nc(C(=O)N5CCOCC5)co4)cc(Cl)c13)[nH]c2=O [Example 326, 4-chloro-6-[4-(morpholine-4-carbonyl)-oxazol-2-yl]-1-methyl-1′-(8-methyl-4-oxo-3,4,5,6,7,8-hexahydro-pyrido[2,3-d]-pyrimidin-2-yl)spino-[indoline-3,4′-piperidin]-2-one]	20 to 200	20 to 200	600 to 1000
CN1CCCc2c1nc(N1CCC3(CC1)C(=O)N(C)c1c(C#N)ccc(Cl)c13)[nH]c2=O [Example 327, 4-chloro-1-methyl-1′-(8-methyl-4-oxo-3,4,5,6,7,8-hexahydro-pyrido[2,3-d]-pyrimidin-2-yl)-2-oxo-spiro[indoline-3,4′-piperidine]-7-carbonitrile]	< 20	< 20	100 to 600
CCOC(=O)c1coc(-c2cc(Cl)c3c(c2)N(C)C(=O)C32CCN(c3nc4c(c(=O)[nH]3)CCCN4C)CC2)n1 [Example 328, 4-chloro-6-(4-ethoxy-carbonyl-oxazole-2-yl)-1-methyl-1′-(8-methyl-4-oxo-3,4,5,6,7,8-hexahydro-pyrido[2,3-d]-pyrimidin-2-yl)spiro-[indoline-3,4′-piperidin]-2-one]	20 to 200	< 20	100 to 600
CN1CCCc2c1nc(N1CCC3(CC1)C(=O)N(C)c1cc(-c4nc(CN5CCCC5)co4)cc(Cl)c13)[nH]c2=O [Example 329, 4-chloro-1-methyl-1′-(8-methyl-4-oxo-3,4,5,6,7,8-hexahydro-pyrido[2,3-d]-pyrimidin-2-yl)-6-[4-(pyrroidin-1yl-methyl)oxazol-2-yl]-spiro-[indoline-3,4′-piperidin]-2-one]	20 to 200	20 to 200	600 to 1000
CN1CCCc2c1nc(N1CCC3(CC1)C(=O)N(C)c1c(C(N)=O)ccc(Cl)c13)[nH]c2=O [Example 330, 4-chloro-1-methyl-1′-(8-methyl-4-oxo-3,4,5,6,7,8-hexahydro-pyrido[2,3-d]-pyrimidin-2-yl)-2-oxospiro-[indoline-3,4′-piperidine]-7-carboxamide]	< 20	< 20	600 to 1000
CN1CCCc2c1nc(N1CCC3(CC1)C(=O)N(C)c1cc(-c4nc(C(=O)O)co4)cc(Cl)c13)[nH]c2=O [Example 331, 2-{4-chloro-1-methyl-1′-(8-methyl-4-oxo-3,4,5,6,7,8-hexahydro-pyrido[2,3-d]pyrimidin-2-yl)-2-oxospiro [indoline-3,4′-piperidin]-6-yl]oxazole-4-carboxylic acid]	< 20	< 20	600 to 1000
O=C1N(Cc2cccnc2)c2cc(F)cc(F)c2C12CCN(c1nc3c(c(=O)[nH]1)CCCC3)CC2 [Example 333, 4,6-difluoro-1′-(4-oxo-3,4,5,6,7,8-hexahydro-quinazolin-2-yl)-1-(pyridin-3-ylmethyl) spiro[indoline-3,4′-piperidin]-2-one]	< 20	< 20	100 to 600
CN1C(=O)C2(CCN(c3nc4c(c(=O)[nH]3)CCCC4)CC2)c2c(Cl)cc(OCCCN3CCOCC3)cc21 [Example 334]	< 20	< 20	600 to 1000
CN1CC2(CCN(c3nc4c(c(=O)[nH]3)CCCN4C)CC2)c2c(F)cc(F)cc21 [Example 337, 2-(4,6-difluoro-1-methylspiro [indoline-3,4′-piperidin]-1′-yl)-8-methyl-5,6,7,8-tetrahy-dropyrido [2,3-d] pyrimidin-4(3H)-one]	< 20	< 20	100 to 600
